These results are taken from patent US9951014B2, “Mammalian and bacterial nitric oxide synthase inhibitors” (Northwestern University, priority 2014, dated 2018).

In one experiment the target is human nNOS (Homo sapiens (Human), UniProt P29475). Nature of the experiment: Oxyhemoglobin NO capture assay with purified NOS. In kind it is biochemical. To be noted: Table 9; read-out: Ki H nNOS.
Another experiment addresses rat nNOS (Rattus norvegicus (Rat), UniProt P29476). Nature of the experiment: Oxyhemoglobin NO capture assay with purified NOS. In kind it is biochemical.
Another experiment concerns the target murine iNOS (Mus musculus (Mouse), UniProt P29477). In words: Oxyhemoglobin NO capture assay with purified NOS. To be noted: for i/n selectivity: ratio Ki iNOS / Ki rat nNOS. In kind it is biochemical.
In another experiment the target is bovine eNOS (Bos taurus (Bovine), UniProt P29473). Nature of the experiment: Oxyhemoglobin NO capture assay with purified NOS. Type of experiment: biochemical. Conditions: for e/n selectivity: ratio Ki eNOS / Ki rat nNOS.
The test system of experiment [1] is S. aureus UAMS1182 (MRSA). Nature of the experiment: Effect of H2O2 and NOS inhibitors on S. aureus viability (CFU). Type of experiment: cell-based, Staphylococcus aureus. Conditions: for effect of co-treatment with H2O2 on killing of S. aureus: 200 μM inhibitor + 5 mM H2O2; for S. aureus survival, inhibitor alone: 200 μM inhibitor, WT and Δnos strains.
Experiment [2] has as its target T1, bsNOS (Bacillus subtilis (strain 168), UniProt O34453). In words: Imidazole displacement, spectral binding constant KS.
The next experiment deals with nNOS (Rattus norvegicus (Rat), UniProt P29476). Conditions: literature data (footnote b); read-out: KS nNOS; cited from earlier work.
The target of experiment [3] is T1, bsNOS. To be noted: cited from earlier work.
The next experiment deals with eNOS (Bos taurus (Bovine), UniProt P29473). To be noted: literature data (footnotes a, c); read-out: KS eNOS; cited from earlier work.
Another experiment deals with B. subtilis. In words: Effect of oxidative/antimicrobial stress and NOS inhibitors on B. subtilis survival (CFU). In kind it is cell-based, Bacillus subtilis.
Where [4] appears, read: WT − KS, wild-type bsNOS, Table 8.
[5] abbreviates: wt B. subtilis, L-NNA, 1 at 500 μM, 2 at 250 μM.

Where two headings read alike, the source gives them in different places.

By Ki is commonly meant a measure of affinity in units of concentration, obtained from inhibition or displacement.

T1 sequence (O34453 whole entry): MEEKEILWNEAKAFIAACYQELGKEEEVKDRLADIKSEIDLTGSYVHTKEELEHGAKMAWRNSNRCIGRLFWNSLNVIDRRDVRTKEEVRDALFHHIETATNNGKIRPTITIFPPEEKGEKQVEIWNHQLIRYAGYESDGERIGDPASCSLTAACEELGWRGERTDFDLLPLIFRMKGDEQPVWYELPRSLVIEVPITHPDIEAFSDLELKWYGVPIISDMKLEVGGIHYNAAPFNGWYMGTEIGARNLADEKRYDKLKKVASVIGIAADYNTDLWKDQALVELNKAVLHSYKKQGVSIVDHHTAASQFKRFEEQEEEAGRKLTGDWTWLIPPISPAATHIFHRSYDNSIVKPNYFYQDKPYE
Description for bovine eNOS: (§1) The oxyhemoglobin NO assays were performed with purified NOSs using a Biotek Gen5™ microplate reader as previously reported. […] For iNOS, calmodulin and CaCl2 were omitted because iNOS is calcium independent. […] The calculated standard deviations of the assays were less than 10% with all NOSs. […] The selectivity of antagonism of nNOS was determined by calculating the ratios of the Ki values with iNOS or eNOS to those with rat nNOS.
Description for human nNOS: as §1
Description for murine iNOS: as §1
Description for rat nNOS: as §1

As to `CNCCN(C)c1cccc(CCc2cc(C)cc(N)n2)c1` [Compound 10a, N^1-(3-(2-(6-Amino-4-methylpyridin-2-yl)ethyl)phenyl)-N^1,N^2-dimethylethane-1,2-diamine], the Ki at human nNOS is 0.098 ± 0.005 µM; at rat nNOS (Table 9, read-out: Ki Rat nNOS) it was 0.13 ± 0.01 µM; at murine iNOS (Table 9, read-out: Ki iNOS), 5.34 µM; on bovine eNOS (Table 9, read-out: Ki eNOS), 20.2 µM. For the same molecule, at murine iNOS (Table 9), the i/n selectivity was 41. The e/n selectivity at bovine eNOS (Table 9) is reported as 156.
Regarding `Cc1cc(N)nc(CCc2cccc(NCCN(C)C)c2)c1` [Compound 10b, N^1-(3-(2-(6-Amino-4-methylpyridin-2-yl)ethyl)phenyl)-N^2,N^2-dimethylethane-1,2-diamine], the Ki came to 0.111 ± 0.009 µM on human nNOS; 0.19 ± 0.012 µM on rat nNOS (Table 9, read-out: Ki Rat nNOS); 5.43 µM on murine iNOS (Table 9, read-out: Ki iNOS); 23.7 µM on bovine eNOS (Table 9, read-out: Ki eNOS). Moreover, the i/n selectivity on murine iNOS (Table 9) was 29. The e/n selectivity at bovine eNOS (Table 9) was determined as 125.
Take `Cc1cc(N)nc(CCc2cccc(N(C)CCN)c2)c1` [Compound 10c, N^1-(3-(2-(6-Amino-4-methylpyridin-2-yl)ethyl)phenyl)-N^1-methylethane-1,2-diamine]: the Ki came out at 0.056 ± 0.002 µM at human nNOS; 0.062 ± 0.0041 µM at rat nNOS (Table 9, read-out: Ki Rat nNOS); 2.9 µM on murine iNOS (Table 9, read-out: Ki iNOS); 10.7 µM at bovine eNOS (Table 9, read-out: Ki eNOS). Besides, the i/n selectivity on murine iNOS (Table 9) is 47. Moreover, the e/n selectivity on bovine eNOS (Table 9) came out at 172.
Regarding `Cc1cc(N)nc(CCc2cccc(N(C)CCCN)c2)c1` [Compound 10d, N^1-(3-(2-(6-Amino-4-methylpyridin-2-yl)ethyl)phenyl)-N^1-methylpropane-1,3-diamine], the Ki at human nNOS is 0.109 ± 0.003 µM; at rat nNOS (Table 9, read-out: Ki Rat nNOS) it was 0.43 ± 0.022 µM; at murine iNOS (Table 9, read-out: Ki iNOS), 4.64 µM; on bovine eNOS (Table 9, read-out: Ki eNOS), 10.7 µM. Also, at murine iNOS (Table 9), the i/n selectivity is 11. Also, the e/n selectivity at bovine eNOS (Table 9) is 25.
For `CNCCN(C)c1cncc(CCc2cc(C)cc(N)n2)c1` [Compound 14b, N^1-(5-(2-(6-Amino-4-methylpyridin-2-yl)ethyl)pyridin-3-yl)-N^1,N^2-dimethylethane-1,2-diamine], the Ki on human nNOS came out at 0.059 ± 0.0032 µM; on bovine eNOS (Table 9, read-out: Ki eNOS) it was 12.9 µM.
Take `Nc1ccc2ccc(CCNCCCc3cccc(F)c3)cc2n1` [Compound 19]: the “effect of co-treatment with H2O2 on killing of S. aureus” value in experiment [1] is recorded as “significantly increases the H2O2-mediated killing”. The “S. aureus survival, inhibitor alone” value in [1] is “reduced bacterial survival over time”. Besides, the Kd on bsNOS [2] (KS (bsNOS), Table 5) stood at 3.6 ± 0.8 µM; on bsNOS [2] (setting [4]), 3.6 ± 0.8 µM.
As to `CNCCN(C)c1cc(CCc2cc(C)cc(N)n2)cc(C(F)(F)F)c1` [Compound 19a, N^1-(3-(2-(6-Amino-4-methylpyridin-2-yl)ethyl)-5-(trifluoromethyl)phenyl)-N^1,N^2-dimethylethane-1,2-diamine], the Ki on human nNOS was 0.189 ± 0.016 µM; on rat nNOS (Table 9, read-out: Ki Rat nNOS), 0.067 ± 0.0033 µM; on murine iNOS (Table 9, read-out: Ki iNOS), 8.13 µM; on bovine eNOS (Table 9, read-out: Ki eNOS), 15.9 µM. Also, on murine iNOS (Table 9), the i/n selectivity was 122. Besides, on bovine eNOS (Table 9), the e/n selectivity is on record as 238.
On to `CNCCN(C)c1cc(F)cc(CCc2cc(C)cc(N)n2)c1` [Compound 19b, N^1-(3-(2-(6-Amino-4-methylpyridin-2-yl)ethyl)-5-fluorophenyl)-N^1,N^2-dimethylethane-1,2-diamine], for which the Ki at human nNOS is 0.105 ± 0.0081 µM; on rat nNOS (Table 9, read-out: Ki Rat nNOS), 0.034 ± 0.0012 µM; on murine iNOS (Table 9, read-out: Ki iNOS), 5.56 µM; on bovine eNOS (Table 9, read-out: Ki eNOS), 30.2 µM.
Consider `Cc1cc(N)nc(CCc2cc(C#N)cc(NCc3cccc(F)c3)c2)c1` [Compound 23, 3-(2-(6-Amino-4-methylpyridin-2-yl)ethyl)-5-((3-fluorobenzyl)amino)benzonitrile], for which the Kd at bsNOS [2] (KS (bsNOS), Table 5) was 9.6 ± 1.3 µM.
The same measure, in the same setting: the figure for `Cc1cc(N)nc(CCc2cc(F)cc(NCc3ccc(F)cc3)c2)c1` [Compound 24, 6-(3-Fluoro-5-((4-fluorobenzyl)amino)phenethyl)-4-methylpyridin-2-amine] is 29 ± 4 µM; for `Cc1cc(N)nc(CCc2cc(F)cc(NCc3cccc(F)c3)c2)c1` [Compound 25, 6-(3-Fluoro-5-((3-fluorobenzyl)amino)phenethyl)-4-methylpyridin-2-amine] it is 19 ± 5 µM; for `CNCCN(C)Cc1ccc(-c2cc(C)cc(N)n2)cc1` [Compound 26, N1-(4-(6-amino-4-methylpyridin-2-yl)benzyl)-N1,N2-dimethylethane-1,2-diamine] it is 6.3 ± 0.3 µM.
Turning to `Cc1cc(N)nc(-c2ccc(CNCCc3cccc(F)c3)cc2)c1` [Compound 27, 6-(4-(((3-Fluorophenethyl)amino)methyl)phenyl)-4-methylpyridin-2-amine], the “effect of co-treatment with H2O2 on killing of S. aureus” value in [1] is listed as “significantly increases the H2O2-mediated killing”. In addition, the “S. aureus survival, inhibitor alone” value in [1] is listed as “reduced bacterial survival over time”. Besides, the Kd on bsNOS [2] (KS (bsNOS), Table 5) came out at 8.9 ± 2 µM; on bsNOS [2] (setting [4]), 8.8 ± 2 µM. Also, the Ki on rat nNOS worked out at 0.525 µM; at murine iNOS it was 6.44 µM; at bovine eNOS it was 2.87 µM.
Regarding `Cc1cc(N)nc(-c2ccc(CNCCCc3cccc(Cl)c3)cc2)c1` [Compound 28, 6-(4-(((3-(3-Chlorophenyl)propyl)amino)methyl)phenyl)-4-methylpyridin-2-amine], at bsNOS [2] (KS (bsNOS), Table 5), the Kd turned out to be 3.2 ± 0.1 µM.
Still for that read-out and setting: the same measure for `Cc1cc(N)nc(-c2ccc(CNCc3cccc(F)c3)cc2)c1` [Compound 29, 6-(4-(((3-Fluorobenzyl)amino)methyl)phenyl)-4-methylpyridin-2-amine]: 1.5 ± 0.3 µM; for `CNCCN(C)c1cccc(Cc2cc(C)cc(N)n2)n1` [Compound 31]: 94 ± 22 µM.
Still for that read-out and setting: the same measure for `CNCCN(C)Cc1cccc(Cc2cc(C)cc(N)n2)c1` [Compound 32]: 1.6 ± 0.6 µM.
As for `N=C(N)NCCC[C@H](N)C(=O)O` [L-Arg, L-arginine], the Kd at nNOS was 0.72 µM; at bsNOS [3] (read-out: WT − KS, wild-type bsNOS, referenced value (25)), 4.8 µM; on bsNOS [2] (KS bsNOS, imidazole displacement, Tables 1 and 4) it was 0.76 µM; at eNOS it was 1 µM.
For the molecule `N=C(NCCC[C@H](N)C(=O)O)N[N+](=O)[O-]` [L-NNA, N^ω-nitro-L-arginine, reference compound], in the experiment on B. subtilis (setting [5]), the “effect on bacterial % survival in the presence of ACR” value is on record as “bacterial % survival decreased” and the “effect on bacterial % survival in the presence of H2O2” value is “trivial effects on bacterial survival”.
Take `NC(=NCCC[C@H](N)C(=O)O)NO` [NOHA, N-omega-hydroxy-L-arginine, reference compound]: the Kd on bsNOS [3] (absence of H4B, referenced values (8), (9), read-out: KS bsNOS (−H4B)) is 3.2 µM; at bsNOS [2] (presence of 50 μM H4B, read-out: KS bsNOS (+H4B)) it was 1.9 ± 0.1 µM. For the same molecule, at bsNOS [2] (50 μM H4B), the “fold difference in KS binding to bsNOS in presence vs absence of H4B” value was determined as 1.2 fold.
Turning to acriflavine, the “bacterial growth, % of control” value in the experiment on B. subtilis (B. subtilis, agent alone (800 μM ACR or 500 μM NOS inhibitor)) is listed as 23 % of control.
